The values below come from PMC12717099, “Peptidoglycan recruitment by a penicillin binding protein” (Nature Communications, 2025).

Assay [1] has as its system E. faecium D344SRF pCWR624Δpbp5_pbp5_V4. In words: Disk diffusion assay, pbp5_V4. It is filed as cell-based, Enterococcus faecium. The following applies: strain pbp5_V4 (D530A_L533A_W457A); 37 °C, 24 h; n=3. How it is done: (§1) The synthetic genes were purchased from GeneWiz (South Plainfield, NJ). The ribosome binding site sequence AGGAGG (Shine-Dalgarno), and a string of five A’s followed by the sequence […], that corresponds to the first 15 bp found in pbp5 from E. faecium C68 were added upstream of the START codon. The terminator sequence […] was added downstream of the STOP codon. BamHI restriction sites were added to the flanking 5′ and 3′ ends. The synthetic genes were inserted into the vector pCWR624Δpbp5. This vector was derived from pCWR624[10], in which the pbp5 gene from D366 was excised by digestion with BamHI followed by re-ligation of the vector, allowing subsequent insertion of modified synthetic pbp5s into the BamHI site downstream of ftsWEfm and psr from E. faecium C68[10]. The synthetic genes were inserted in a BamHI site located downstream of psr. The proper orientation was confirmed by PCR amplification using the forward primer OR_pbp5_FOR_1 (5′-[…]-3′) and the reverse primer OR_pbp5_REV_1 (5′-[…]-3′). Plasmids were sequence verified for the specific binding site mutations. The resulting constructions were electroporated into the natural pbp5(-) mutant E. faecium D344SRF with a selection on brain heart infusion agar (BHI) plates containing kanamycin (1500 µg/ml).
(§2) E. faecium strains were streaked fresh from −80 °C stored glycerol stocks onto brain heart infusion (BHI) agar plates and incubated for 18 h at 37 °C. Strains harboring the plasmid derivatives were grown under antibiotic pressure on agar plates containing kanamycin at 1500 µg/ml. A single colony was inoculated into BHI or BHI-kanamycin (1500 µg/ml) for overnight cultures (18 h).
(§3) Antibiotic disks used were manufactured by BD BBL^TM. Disk diffusion assays were performed according to the Clinical and Laboratory Standards Institute (CLSI) guidance. Overnight cultures were inoculated into 3 ml of BHI or BHI-kanamycin (1500 µg/ml) broth with a dilution of 1:100 and incubated until an OD600 of ~0.5 was reached. […] The plates were incubated at 37 °C and the zones of inhibition were measured after 24 h. […]

The subject of assay [2] is E. faecium D344SRF pCWR624Δpbp5_pbp5_V5. The assay can be described thus: Disk diffusion assay, pbp5_V5. The following applies: strain pbp5_V5 (Q396A_E397A); 37 °C, 24 h; n=3. It counts as cell-based, Enterococcus faecium. On the procedure: as §1, §2, §3
On the technique in general: A growth-free zone around the sample is the usual read-out of agar diffusion tests.

The test system of assay [3] is E. faecium D344SRF pCWR624Δpbp5_pbp5_V1. In words: MIC by broth microdilution, pbp5_V1. It is filed as cell-based, Enterococcus faecium. The note with it: strain pbp5_V1 (N523A); 37 °C, 20 h; n=3. On the procedure: as §1, §2
(§4) MIC determination was performed using a standard broth microdilution technique in duplicate from independent cultures. Overnight cultures were inoculated into 3 ml of BHI or BHI-kanamycin (1500 µg/ml) broth in a dilution of 1:100 and incubated until an OD600 of ~0.5 was reached. Cultures were diluted 1:1000 and inoculated into the 96-well plates with the corresponding antibiotics to be tested. Plates were incubated at 37 °C for 20 h and read by eye. […]

Assay [4] concerns E. faecium D344SRF pCWR624Δpbp5_pbp5_V3. The assay can be described thus: MIC by broth microdilution, pbp5_V3. It is filed as cell-based, Enterococcus faecium. The following applies: strain pbp5_V3 (loop 625-631); 37 °C, 20 h; n=3. On the procedure: as §1, §2, §4
(In general: Dilution methods test growth across graded concentrations, often in twofold steps.)

In the next assay the test system is PBP5:ceftaroline complex. In words: 1D 1H STD NMR of SP2 with PBP5:ceftaroline. It counts as binding, Enterococcus faecium. The following applies: for STD amplification factor: ceftaroline-saturated PBP5, 2 s saturation. The text has this: Total saturation time for STD measurements was 2 s.
Overlapped peaks were completely excluded from the analysis.

Consider `CO/N=C(\C(=O)N[C@@H]1C(=O)N2C(C(=O)O)=C(CSc3nc(=O)c(=O)[nH]n3C)CS[C@H]12)c1csc(N)n1` [Ceftriaxone, ceftriaxone], for which the “Zone Size (mm) [Range]” value in assay [1] was 26 [26-28] mm; in assay [2], 0 [0] mm. Moreover, the “MIC (µg/ml) [Range]” value in assay [3] was 3200 [1600-3200] µg/ml; in assay [4] it was 25 [25] µg/ml.
With D-Lac-L-Ala-D-iGln-L-Lys(D-iAsn) [SP2], the “STD amplification factor, ref to SP1 (fraction)” value in the assay with PBP5:ceftaroline complex (1H DLacβ) turned out to be 0.3324; in the assay on PBP5:ceftaroline complex (1H DQ2β (first listed)), 0.6862; with PBP5:ceftaroline complex (1H DQ2β (second listed)) it was 0.9243; in the assay on PBP5:ceftaroline complex (1H DQ2γ), 0.3051; in the assay with PBP5:ceftaroline complex (1H K3α), 0.5095; with PBP5:ceftaroline complex (1H K3β) it was 1.007. For the same molecule, the “STD amplification factor, ref to SP1 (fraction)” value in the assay with PBP5:ceftaroline complex (1H K3γ) is listed as 0.5588; in the assay with PBP5:ceftaroline complex (1H K3δ) it was 0.7209; in the assay with PBP5:ceftaroline complex (1H K3ε), 0.1435; in the assay on PBP5:ceftaroline complex (1H LA1α) it was 0.3824; with PBP5:ceftaroline complex (1H LA1β), 0.3611; with PBP5:ceftaroline complex (1H iNα,DQ2α), 0.2432. In addition, the “STD amplification factor, ref to SP1 (fraction)” value with PBP5:ceftaroline complex (1H iNβ) came to 0.3137. Besides, the “STD, ref to SP1 (percent)” value in the assay with PBP5:ceftaroline complex (1H DLacβ) was found to be 33.2419; in the assay on PBP5:ceftaroline complex (1H DQ2β (first listed)), 68.622; with PBP5:ceftaroline complex (1H DQ2β (second listed)) it was 92.4275; with PBP5:ceftaroline complex (1H DQ2γ), 30.515; with PBP5:ceftaroline complex (1H K3α), 50.9537; with PBP5:ceftaroline complex (1H K3β), 100.738. Further, the “STD, ref to SP1 (percent)” value in the assay on PBP5:ceftaroline complex (1H K3γ) is given as 55.8765; in the assay on PBP5:ceftaroline complex (1H K3δ), 72.0884; in the assay with PBP5:ceftaroline complex (1H K3ε) it was 14.3544; in the assay on PBP5:ceftaroline complex (1H LA1α), 38.2438; in the assay with PBP5:ceftaroline complex (1H LA1β), 36.1111; in the assay with PBP5:ceftaroline complex (1H iNα,DQ2α) it was 24.3189. In addition, the “STD, ref to SP1 (percent)” value with PBP5:ceftaroline complex (1H iNβ) was 31.3676. Moreover, the STD amplification factor in the assay on PBP5:ceftaroline complex (1H DLacβ) is listed as 8.945; in the assay on PBP5:ceftaroline complex (1H DQ2β (first listed)) it was 18.4651; in the assay on PBP5:ceftaroline complex (1H DQ2β (second listed)), 24.8707; with PBP5:ceftaroline complex (1H DQ2γ), 8.211; with PBP5:ceftaroline complex (1H K3α), 13.7108; in the assay with PBP5:ceftaroline complex (1H K3β), 27.1069. The STD amplification factor was 15.0355 in the assay on PBP5:ceftaroline complex (1H K3γ); 19.3978 with PBP5:ceftaroline complex (1H K3δ); 3.863 with PBP5:ceftaroline complex (1H K3ε); 10.2908 with PBP5:ceftaroline complex (1H LA1α); 9.717 with PBP5:ceftaroline complex (1H LA1β); 6.544 in the assay with PBP5:ceftaroline complex (1H iNα,DQ2α). Besides, the STD amplification factor in the assay with PBP5:ceftaroline complex (1H iNβ) worked out at 8.441.
